Test results: patent US12264173B2 (GILEAD SCIENCES, INC., priority 2020, dated 2025)
Like-named read-outs stand apart in the source and are kept apart here.

What was measured:
Type in all cases: cell-based
DENV2 replicon = assay: DENV-2 Huh-7 Rep EC50 (replicon luminescence)
Procedure, shortened: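 Huh-7 cells carrying a DENV2 replicon, 5,000 cells/well, were incubated with dosed compounds for 48 h at 37° C. EnduRen live-cell substrate was added 1.5 h before luminescence reading. EC50 came from dose-response against DMSO-only wells.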

HRV16 = HRV16 HeLa EC50 (cytopathic effect in H1-HeLa cells)
Procedure, shortened: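 H1-HeLa cells seeded one day before, given 3-fold serial compound dilutions in triplicate just prior to infection with pre-titrated virus. Incubated 96 h at 33 °C/5% CO2; protection from cytopathic effect read as viability by CellTiter-Glo luminescence, normalised to infected untreated (0%) and uninfected (100%) controls.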

RSV strain A2 = assay: microbe, parasite or virus in culture; conditions: Table 3, HEp-2 cells, RSV A2, 4 days, read-out: RSV HEp-2 EC50
Procedure, shortened: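 Cytopathic-effect protection assay: HEp-2 cells (50,000/mL) infected with pre-titered RSV A2 onto 3-fold serial compound dilutions, incubated 4 days at 37° C. Cell viability read by CellTiter-Glo luminescence; percent inhibition derived against 0% and 100% virus-inhibition controls.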

RSV A2 = assay: RSV NHBE EC50 (RSV A2 antiviral assay in NHBE cells); conditions: Table 3, NHBE cells, RSV A2, 4 days, read-out: RSV NHBE EC50
Procedure, shortened: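 NHBE cells (7,500/well, passage ≤6) given 3-fold serially diluted compound (0.05% DMSO final), then infected with RSV A2 at 1×10^4.5 tissue culture infectious doses/mL. After 4 days at 37 °C, viability measured by CellTiter-Glo luminescence at 25 °C.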

[1] = Dengue virus, DENV2, Huh-7, 48 h, read-out: DENV-2 REP Huh7 EC50
[2] = 96 h, Table 3; H1-HeLa cells, 96 h; read-out: HRV16 HeLa EC50
[3] = human respiratory syncytial virus, HEp-2, 96 h
[4] = human respiratory syncytial virus, NHBE, 96 h
[5] = Table 3, Huh-7 DENV2 replicon cells, 48 hours, read-out: DENV-2 REP Huh7 EC50
[6] = Table 3; H1-HeLa cells, 96 h; read-out: HRV16 HeLa EC50
[7] = Dengue virus, DENV2, Huh-7, 48 h, read-out: DENV-2 REP Huh7 EC50, Table 3, Huh-7 DENV2 replicon cells, 48 hours

Work on `CC(C)C(=O)O[C@H]1[C@H](c2ccc3c(N)ncnn23)O[C@](C#N)(COP(=O)(N[C@@H](C)C(=O)OCC2COC2)Oc2ccccc2)[C@H]1OC(=O)C(C)C` (stereo partly drawn) [Example 200, (2R,3S,4S,5S)-5-(4-aminopyrrolo[2,1-f][1,2,4]triazin-7-yl)-2-cyano-2-((((((S)-1-(oxetan-3-ylmethoxy)-1-oxopropan-2-yl)amino)(phenoxy)phosphoryl)oxy)methyl) tetrahydrofuran-3,4-diyl bis(2-methylpropanoate)] yielded an EC50 (DENV2 replicon; [1]) of 2.18 µM, an EC50 (HRV16; [2]) of 0.12 µM and an EC50 (RSV strain A2; [3]) of 0.058 µM. The EC50 (RSV A2; [4]) was 0.012 µM.
With `CCCOC(=O)[C@H](C)NP(=O)(OC[C@@]1(C#N)O[C@@H](c2ccc3c(N)ncnn23)[C@H](OC(=O)CC)[C@@H]1OC(=O)CC)Oc1ccccc1` (single isomer, unassigned) [Example 189] the EC50 (DENV2 replicon; [5]) was 8.84 µM, the EC50 (HRV16; [6]) was 0.114 µM and the EC50 (RSV strain A2) was 0.036 µM. For the same compound, the EC50 (RSV A2) was 0.051 µM.
For `CC(=O)O[C@H]1[C@H](c2ccc3c(N)ncnn23)O[C@](C#N)(COP(=O)(N[C@@H](C)C(=O)OC2CCOCC2)Oc2ccccc2)[C@H]1OC(C)=O` (single isomer, unassigned) [Example 165], the EC50 (DENV2 replicon; [5]) was greater than 99.7 µM, the EC50 (HRV16; [6]) was 1.91 µM and the EC50 (RSV strain A2) was 0.405 µM. For the same compound, the EC50 (RSV A2) was 0.165 µM.
`CC(C)C(=O)O[C@H]1[C@H](c2ccc3c(N)ncnn23)O[C@](C#N)(COP(=O)(N[C@@H](C)C(=O)O[C@H]2CC[C@H](N)CC2)Oc2ccccc2)[C@H]1OC(=O)C(C)C` (stereo partly drawn) [Example 136, (2R,3S,4S,5S)-2-((((((S)-1-(((1r,4S)-4-aminocyclohexyl)oxy)-1-oxopropan-2-yl)amino)(phenoxy)phosphoryl)oxy)methyl)-5-(4-aminopyrrolo[2,1-f][1,2,4]triazin-7-yl)-2-cyanotetrahydrofuran-3,4-diyl bis(2-methylpropanoate)] showed an EC50 (DENV2 replicon; [1]) of 38.2 µM, an EC50 (HRV16; [2]) of 15 µM and an EC50 (RSV strain A2; [3]) of 2.95 µM. For the same compound, the EC50 (RSV A2; [4]) was 0.244 µM.
In the case of `CC(=O)O[C@H]1[C@H](c2ccc3c(N)ncnn23)O[C@](C#N)(COP(=O)(N[C@@H](C)C(=O)OC(C)C)N[C@@H](C)C(=O)OC(C)C)[C@H]1OC(C)=O` [Example 133, ((2R,3S,4R,5S)-5-(4-aminopyrrolo[2,1-f][1,2,4]triazin-7-yl)-2-cyano-3,4-diacetatetetrahydrofuran-2-yl)methyl bis-isopropyl L-alaninate phosphate], the EC50 (DENV2 replicon; [7]) is reported as greater than 50 µM, the EC50 (HRV16; [2]) is reported as greater than 48.9 µM and the EC50 (RSV strain A2; [3]) is reported as 18.1 µM. It also gave an EC50 (RSV A2; [4]) greater than 4.07 µM.
Compound `CCC(=O)O[C@H]1[C@H](c2ccc3c(N)ncnn23)O[C@](C#N)(CO[P@](=O)(N[C@@H](C)C(=O)OCC2CCOCC2)Oc2ccccc2)[C@H]1OC(=O)CC` [Example 109] has an EC50 (DENV2 replicon; [5]) of 26.3 µM, an EC50 (HRV16; [6]) of 0.379 µM and an EC50 (RSV strain A2) of 0.103 µM. It also gave an EC50 (RSV A2) of 0.032 µM.
`CC(C)C(=O)OC1C(c2ccc3c(N)ncnn23)OC(C#N)(COP(=O)(NC(C)C(=O)OCC2CCC(N)CC2)Oc2ccccc2)C1OC(=O)C(C)C` (single isomer, unassigned) [Example 208] showed an EC50 (DENV2 replicon; [5]) greater than 50 µM, an EC50 (HRV16; [6]) of 15.2 µM and an EC50 (RSV strain A2) of 2.12 µM. It also gave an EC50 (RSV A2) of 0.215 µM.
`COC(=O)[C@H](C)NP(=O)(N[C@@H](C)C(=O)OC)OC[C@@]1(C#N)O[C@@H](c2ccc3c(N)ncnn23)[C@H](OC(=O)C(C)C)[C@@H]1OC(=O)C(C)C` [Example 149, ((2R,3S,4R,5S)-5-(4-aminopyrrolo[2,1-f][1,2,4]triazin-7-yl)-2-cyano-3,4-diisobutylatetetrahydrofuran-2-yl)methyl bis-methyl L-alaninate phosphate] was tested, and the EC50 (DENV2 replicon; [7]) was greater than 35.8 µM, the EC50 (HRV16; [2]) was 3.19 µM and the EC50 (RSV strain A2; [3]) was 1.15 µM. It also gave an EC50 (RSV A2; [4]) of 0.084 µM.
In the case of `CCC(=O)O[C@H]1[C@H](c2ccc3c(N)ncnn23)O[C@](C#N)(CO[P@@](=O)(N[C@@H](C)C(=O)OCC2CCN(CC(F)(F)F)CC2)Oc2ccccc2)[C@H]1OC(=O)CC` [Example 116], the EC50 (DENV2 replicon; [5]) is reported as 19.7 µM, the EC50 (HRV16; [6]) is reported as 0.303 µM and the EC50 (RSV strain A2) is reported as 0.273 µM. The EC50 (RSV A2) was 0.015 µM.
`COC(=O)[C@H](C)NP(=O)(N[C@@H](C)C(=O)OC)OC[C@@]1(C#N)O[C@@H](c2ccc3c(N)ncnn23)[C@H](OC(C)=O)[C@@H]1OC(C)=O` [Example 127] was tested, and the EC50 (DENV2 replicon; [7]) was greater than 50 µM, the EC50 (HRV16; [2]) was greater than 50 µM and the EC50 (RSV strain A2; [3]) was 8.06 µM. For the same compound, the EC50 (RSV A2; [4]) was 3.36 µM.
`CCCCC(=O)O[C@H]1[C@H](c2ccc3c(N)ncnn23)O[C@](C#N)(COP(=O)(N[C@@H](C)C(=O)OCC)N[C@@H](C)C(=O)OCC)[C@H]1OC(=O)CCCC` [Example 194, (2R,3S,4S,5S)-5-(4-Aminopyrrolo[2,1-f][1,2,4]triazin-7-yl)-2-(((bis(((S)-1-ethoxy-1-oxopropan-2-yl)amino)phosphoryl)oxy)methyl)-2-cyanotetrahydrofuran-3,4-diyl dipentanoate] gave an EC50 (DENV2 replicon; [7]) of 30.9 µM, an EC50 (HRV16; [2]) of 2.09 µM and an EC50 (RSV strain A2; [3]) of 0.391 µM. The EC50 (RSV A2; [4]) was 0.529 µM.
In the case of `CCC(=O)O[C@H]1[C@H](c2ccc3c(N)ncnn23)O[C@](C#N)(COP(=O)(N[C@@H](C)C(=O)OC(C)C)Oc2ccc(OCCOC)cc2)[C@H]1OC(=O)CC` (stereo partly drawn) [Example 215, (2R,3S,4S,5S)-5-(4-aminopyrrolo[2,1-f][1,2,4]triazin-7-yl)-2-cyano-2-((((((S)-1-isopropoxy-1-oxopropan-2-yl)amino)(4-(2-methoxyethoxy)phenoxy)phosphoryl)oxy)methyl)tetrahydrofuran-3,4-diyl dipropionate], the EC50 (DENV2 replicon; [1]) is reported as 27.2 µM, the EC50 (HRV16; [2]) is reported as 1.02 µM and the EC50 (RSV strain A2; [3]) is reported as 0.378 µM. For the same compound, the EC50 (RSV A2; [4]) was 0.142 µM.
`CCCOC(=O)[C@H](C)NP(=O)(OC[C@@]1(C#N)O[C@@H](c2ccc3c(N)ncnn23)[C@H](OC(=O)C(C)C)[C@@H]1OC(=O)C(C)C)Oc1ccccc1` (single isomer, unassigned) [Example 191] was tested, and the EC50 (DENV2 replicon; [5]) was 2.7 µM, the EC50 (HRV16; [6]) was 0.064 µM and the EC50 (RSV strain A2) was 0.023 µM. The EC50 (RSV A2) was 0.008 µM.
With `CCC(=O)Nc1ncnn2c([C@@H]3O[C@](C#N)(COP(=O)(N[C@@H](C)C(=O)OC4CCOCC4)Oc4ccccc4)[C@@H](OC(=O)CC)[C@H]3OC(=O)CC)ccc12` (stereo partly drawn) [Example 170, (2R,3S,4S,5S)-2-Cyano-2-((((((S)-1-oxo-1-((tetrahydro-2H-pyran-4-yl)oxy)propan-2-yl)amino)(phenoxy)phosphoryl)oxy)methyl)-5-(4-propionamidopyrrolo[2,1-f][1,2,4]triazin-7-yl)tetrahydrofuran-3,4-diyl dipropionate] the EC50 (DENV2 replicon; [1]) was 15.9 µM, the EC50 (HRV16; [2]) was 0.863 µM and the EC50 (RSV strain A2; [3]) was 0.267 µM. It also gave an EC50 (RSV A2; [4]) of 0.08 µM.
`CC(C)OC(=O)[C@H](C)N[P@](=O)(OC[C@@]1(C#N)O[C@@H](c2ccc3c(N)ncnn23)[C@H](OC(=O)CN2CCOCC2)[C@@H]1OC(=O)CN1CCOCC1)Oc1ccccc1` [Example 216, (2R,3S,4S,5S)-5-(4-aminopyrrolo[2,1-f][1,2,4]triazin-7-yl)-2-cyano-2-((((S)-(((S)-1-isopropoxy-1-oxopropan-2-yl)amino)(phenoxy)phosphoryl)oxy)methyl) tetrahydrofuran-3,4-diyl bis(2-morpholinoacetate)] was tested, and the EC50 (DENV2 replicon; [1]) was 31.2 µM, the EC50 (HRV16; [2]) was 3.5 µM and the EC50 (RSV strain A2; [3]) was 0.262 µM. The EC50 (RSV A2; [4]) was 3.87 µM.
`COC(=O)[C@H](C)N[P@](=O)(OC[C@@]1(C#N)O[C@@H](c2ccc3c(N)ncnn23)[C@H](OC(=O)[C@@H](C)OC)[C@@H]1OC(=O)[C@@H](C)OC)Oc1ccccc1` [Example 166, (2R,3S,4S,5S)-5-(4-aminopyrrolo[2,1-f][1,2,4]triazin-7-yl)-2-cyano-2-((((S)-(((S)-1-methoxy-1-oxopropan-2-Yl)amino)(phenoxy)phosphoryl)oxy)methyl) tetrahydrofuran-3,4-diyl (2R,2′R)-bis(2-methoxypropanoate)] was tested, and the EC50 (DENV2 replicon; [1]) was 21.7 µM, the EC50 (HRV16; [2]) was 1.66 µM and the EC50 (RSV strain A2; [3]) was 0.157 µM. It also gave an EC50 (RSV A2; [4]) of 0.112 µM.
For `CC(C)C(=O)O[C@H]1[C@H](c2ccc3c(N)ncnn23)O[C@](C#N)(COP(=O)(NCCOC(=O)C(C)(C)C)Oc2ccccc2)[C@H]1OC(=O)C(C)C` (stereo partly drawn) [Example 97, (2R,3S,4S,5S)-5-(4-aminopyrrolo[2,1-f][1,2,4]triazin-7-yl)-2-cyano-2-(((phenoxy((2-(pivaloyloxy)ethyl)amino)phosphoryl)oxy)methyl)tetrahydrofuran-3,4-diyl bis(2-methylpropanoate)], the EC50 (DENV2 replicon; [1]) was 9.05 µM, the EC50 (HRV16; [2]) was 1.12 µM and the EC50 (RSV strain A2; [3]) was 0.366 µM. The EC50 (RSV A2; [4]) was greater than 5 µM.
Work on `COC(=O)[C@H](C)NP(=O)(OC[C@@]1(C#N)O[C@@H](c2ccc3c(N)ncnn23)[C@H](OC(C)=O)[C@@H]1OC(C)=O)Oc1ccccc1` (stereo partly drawn) [Example 129, (2R,3S,4S,5S)-5-(4-aminopyrrolo[2,1-f][1,2,4]triazin-7-yl)-2-cyano-2-((((((S)-1-methoxy-1-oxopropan-2-yl)amino)(phenoxy)phosphoryl)oxy)methyl)tetrahydrofuran-3,4-diyl diacetate] yielded an EC50 (DENV2 replicon; [1]) of 15.5 µM, an EC50 (HRV16; [2]) of 1.11 µM and an EC50 (RSV strain A2; [3]) of 0.154 µM. For the same compound, the EC50 (RSV A2; [4]) was 0.077 µM.
